This is an account of results in paper PMC6571673, “Cytostatic and Cytotoxic Natural Products against Cancer Cell Models” (Molecules, 2019).

Series [1] deals with KOPN-8. Kind of series: Cell cycle analysis (PI DNA content, flow cytometry). The class given is cell-based, human. To be noted: KOPN-8, 24 h; silvestrol 5 µM, 8 5 µM, 9 10 µM, 10 5 µM, 12 10 µM, 13 10 µM. How it is done: (§1) The samples were probed with AnnexinV-FITC (Roche/Boehringer Mannheim, Indianapolis, IN, USA) according to the manufacturer’s instructions. KOPN-8 or SUB-P15 cells were plated (1.00 × 10^6 cells/plate) and incubated for 12 h and incubated at 37 °C. Then, cells were treated with compounds or controls for 24 h. Cells were stained with AnnexinV-FITC, PI and the staining profiles were determined with FACScan and Cell-Quest software. For cellular DNA content, the same cell treatment as above was performed. Then, cells were fixed in cold 75% ethanol, treated with RNase and then stained with PI solution (50 µg/mL). Cell cycle distribution was analyzed with the FACSCalibur analyzer (BD Biosciences, Franklin Lakes, NJ, USA) and Cell-Quest software. The percentage of DNA content at different phases of the cell cycle was analyzed with ModFit-software (version 5.0, Verity Software House, Topsham, ME, USA).

Series [2] concerns SUP-B15. Described as above. The class given is cell-based, human. To be noted: SUP-B15, 24 h; silvestrol 5 µM, 8 5 µM, 9 10 µM, 10 5 µM, 12 10 µM, 13 10 µM. The protocol: as §1
Series [3] relates to human cancer cell lines such as oral carcinoma, melanoma, acute myelogenous leukemia, and cervical cancer. Also on record: method as in PMID 15132542, PMID 22128783, PMID 24086701, PMID 19190247. Conditions: several human cancer cell lines; cited from earlier work.
Series [4] deals with MDA-MB-231. Put plainly: Co-localization of probe with organelle trackers, live cell imaging. It is filed as cell-based, human. Conditions: live cells, 2 µM. An excerpt: It is important to determine the intracellular accumulation of compound 9 as this may aid in identifying its intracellular interactions. To facilitate these experiments, a series of orthogonal fluorescent organelle markers were used for co-localization studies. The organelle marker set included indicators for the lysosome (Lysotracker Red), the mitochondria (MitoTracker Deep Red), and the endoplasmic reticulum (ER tracker Blue/White). Where applicable, nuclei were stained with Hoechst (Blue). All these markers were compatible with BODIPY-FL (green) to allow for flexible combinations. […] First, to evaluate the accumulation of compound 9a after 30 min treatment at 1 µM, washout experiments were conducted as shown in Figure 7A in the presence of Hoechst nuclear stain. Distinct green specks were observed near the nucleus of the cell.
Co-localization studies were conducted in 8-well chambered coverslips (ibidi GmbH µ-slide # 80826) for MDA-MB-231. Coverslips were first coated with 0.1% Gelatin for 30 min for better cell adherence. Cells were then plated in phenol red free medium at a density of 4 × 10^4 cells per well and incubated at 37 °C overnight. […]

Series [5] relates to BJ. Kind of series: CTG viability assay (CellTiter-Glo, 72 h). It is filed as cell-based, human. Conditions: Homo sapiens, BJ; CellTiter-Glo, 72 h; non-cancerous cells. How it is done: (§2) All human cell lines were incubated at 37 °C in a 5% CO2 atmosphere and maintained under sterile conditions. Cells were tested for Mycoplasma (Lonza, Alpharetta, GA, USA) using the manufacturer’s conditions prior to experiments. Cell lines were purchased from American Type Culture Collection (ATCC, Manassas, VA, USA) or Leibniz-Institute Deutsche Sammlung von Mikroorganismen und Zellkulturen GmbH (DSMZ, Braunschweig, Germany) and cultured without antibiotics unless stated. Leukemia cells were cultured in RPMI and supplemented with 10% fetal bovine serum (FBS, Hyclone, Logan, UT, USA). SUP-B15, and KOPN-8 lines were cultured in RPMI supplemented with 10% FBS (Hyclone), 1% GlutaMAX™, 1% Pen/Step, and 0.1% β-mercaptoethanol. BJ cells were cultured in EMEM media supplemented with 10% FBS (Hyclone). Breast cancer cells (MDA-MB-231 & SUM149) were cultured in DMEM and Ham’s F12 respectively, supplemented with 10% FBS, 1% GlutaMAX™, 1% Pen/Step, and 2 µM cortisol/1 µg/mL insulin for SUM149. Both cells were grown to 80% confluence densities as recommended by ATCC. PBMCs were supplemented with concanavalin-A (5 μg/mL) and IL-2 (50 U/ml). To test general cytotoxicity, the following cell numbers were used for 384 well plates: KOPN-8 (ACC 552, infant human B cell precursor acute lymphoblastic leukemia with MLL-MLLt1/ENL fusion, 1000 cells/well), SUP-B15 (ACC389, human B cell precursor acute lymphoblastic leukemia of pediatric second relapse carrying the ALL-variant (m-bcr) of BCR-ABL1 fusion gene (e1-a2), 1600 cells/well), NALM-06 (DSMZ ACC128, non-T/non-B ALL at relapse with P15INK4B and P16INK4A deletions, 1200 cells/well), UoC-B1 (pediatric BCP-ALL at second relapse with TCF3/E2A-HFL fusion, 1000 cells/well), BJ (CRL-2522, normal human foreskin fibroblast cells, 400 cells/well) and PBMCs (periphery blood monocyte cells from healthy donors, IBC#BDC046, 10,000 cells/well).
(§3) Cytotoxicity evaluation was performed using the CellTiter-Glo Luminescent Cell Viability Assay kit (G7570, Promega, Madison, WI, USA), according to the manufacturer’s instructions. Briefly, the cell concentrations used were experimentally determined to ensure logarithmic growth during the 72-h duration of the experiment, and avoid adverse effects on cell growth by DMSO exposure. 1 × 10^3–4.8 × 10^3 or 4 × 10^2–1.2 × 10^3 cells/well were seeded in 96 or 384-well white flat-bottomed plates (3610 or 8804BC, Corning, Corning, NY, USA) in 100 µL or 30 µL/well, respectively. The plates were incubated at 37 °C in 5% CO2 for 24 h before drugging. Test compounds (10 mM in DMSO) in nine 3-fold serial dilutions were dispensed via pintool (Biomek liquid handler, Beckman, Indianapolis, USA) to assay plates. The final concentration of DMSO was 0.3% (v/v) in each well. The positive controls included staurosporine (10 μM), and gambogic acid (10 μM). The plates were incubated for 72 h at 37 °C in 5% CO2, then quenched with CellTiter-Glo® (Promega, Madison, WI, USA, 50 µL/96 or 30 µL/384), centrifuged at 1000 rpm for 1 min and incubated at RT for 20 min. Luminescence was recorded with a plate reader (Envision, Perkin Elmer, Waltham, MA, USA). The mean luminescence of each experimental treatment group was normalized as a percentage of the mean intensity of untreated controls. EC50 values were calculated by Pipeline Pilot software (Accelrys, Enterprise Platform, San Diego, CA, USA).
(In general: In ATP-based viability assays light output follows the ATP content of the culture.)

Series [6] has as its system SUP-B15. Kind of series: CTG viability assay (CellTiter-Glo, 72 h). It is filed as cell-based, human. Conditions: Homo sapiens, SUP-B15, 72 h, mean ± SEM of triplicates. The protocol: as §2, §3
The subject of series [7] is KOPN-8. Put plainly: CTG viability assay (CellTiter-Glo, 72 h). The class given is cell-based. Conditions: Homo sapiens, mean ± SEM of triplicates. The protocol:
as §2, §3

Series [8] has as its system NALM-06. Put plainly: CTG viability assay (CellTiter-Glo, 72 h). The class given is cell-based. To be noted: Homo sapiens, mean ± SEM of triplicates. How it is done: as §2, §3
Series [9] relates to PBMC. Kind of series: CTG viability assay (CellTiter-Glo, 72 h). It is filed as cell-based. Conditions: Homo sapiens, non-cancerous cells. How it is done:
as §2, §3

The subject of series [10] is UoC-B1. Kind of series: CTG viability assay (CellTiter-Glo, 72 h). The class given is cell-based. To be noted: Homo sapiens, mean ± SEM of triplicates. The protocol: as §2, §3
Series [11] concerns MDA-MB-231. Put plainly: Propidium iodide (PI) assay, 48 h. The class given is cell-based, human. Conditions: MDA-MB-231, 48 h.
Method: (§4) The first step was to evaluate if the compounds display cytotoxicity against the adherent cells. Propidium iodide (PI) assay was performed for the drug resistant solid tumor cellular models (triple negative breast cancer models: SUM149 and MDA-MB-231) for 48 h (Figure 5) [30, 31].
The subject of series [12] is de novo protein synthesis in MDA-MB-231. Put plainly: EZClick in-cell-click de novo protein synthesis assay. It is filed as cell-based, human. Conditions: MDA-MB-231, 2 h exposure time. The source says: Protein synthesis is essential in cell growth, proliferation, signaling, differentiation, and death. […] The assay includes a robust chemical method based on an alkyne containing o-propargyl-puromycin probe, which stops translation by forming covalent conjugates with nascent polypeptide chains. Truncated polypeptides are rapidly turned over by the proteasome and can be detected based on the subsequent click reaction with a fluorescent azide. To test whether these compounds (4–14) induced de novo protein synthesis inhibition, compounds were tested for a 2 h exposure time, under the same conditions as the known protein synthesis inhibitor cycloheximide (CHX) in MDA-MB-231 cell model following an in-cell-click de novo protein synthesis assay.
Biovision’s EZClick™ protein synthesis monitoring assay kit (EZClick™ Global Protein Synthesis Assay Kit, Catalog # K715-100, Milpitas, CA, USA) was used according to manufacturer’s protocol. The assay was conducted in 8-well chambered coverslips (ibidi GmbH µ-slide # 80826, Martinsried, Germany). Cells were plated at 2 × 10^4 per well and incubated at 37 °C for 12 h. Then, the cells were treated with compounds for 1.5 h and processed and stained according to protocol (representative images shown in Figure 4). Protein synthesis activity is shown in red, DNA staining is shown in green. Cycloheximide (CHX) was used as a positive control and DMSO as the negative control. Images shown were taken with a Marianas CSU-X spinning disk confocal imaging system (3i, Denver, CO, USA) configured with a Zeiss Axio Observer microscope (Carl Zeiss Inc., Thornwood, NY, USA) with diode lasers, at 63× magnification and resolution of 512 × 512 pixels (3i). For each field of view, an image stack consisting of 20 optical sections were taken at 63× magnification. The total intensity of red and green staining was quantified for the entire image stack. Six fields of view were analyzed per condition. Images shown represent a single optical section for each field of view. For each stack, the red intensity (protein synthesis) was adjusted to the green intensity (DNA content) in each image. The numbers from six images were used to calculate the average and standard deviation for each condition. Numbers were normalized to the negative control value arbitrarily set to one. The Slide viewer 6 software package was used for rendering and analysis of the images.

Series [13] deals with SUM149. Kind of series: Propidium iodide (PI) assay, 48 h. Conditions: SUM149, 48 h.
Method: as §4

In the case of `COC(=O)[C@H]1[C@@H](O)[C@@]2(O)c3c(OC)cc(O[C@@H]4O[C@@H]([C@H](O)CO)CO[C@H]4OC)cc3O[C@@]2(c2ccc(OC)cc2)[C@@H]1c1ccccc1` [Silvestrol, reference compound], the cell cycle effect result in [1] and in [2] was “cell arrest in the G1/G0 phase” each time. Further, the IC50 values entry in series [3] is given as “low micromolar range”.
Consider `COC1=CC23CCCN2CCc2cc4c(cc2C3C1OC(=O)CCC1=[N+]2C(=Cc3c(C)cc(C)n3[B-]2(F)F)C=C1)OCO4` (stereo not shown) [9a], for which the “co-localization with endoplasmic reticulum (ER-Tracker Blue/White)” value in series [4] was “Co-localization of probe 9a with ER-Tracker Blue/White”.
The term EC50 denotes the midpoint of the concentration-response curve. A low value points to higher potency in that assay. For `C/C=C1\C(=O)C[C@@]2(O)[C@@H]3CCC4=CC(=O)CC[C@]4(C)[C@H]3CC[C@]12C` [Compound 14], the EC50 is over 43.3 µM in series [5]; 17.2 ± 4.5 µM in [6]; over 43.3 µM in series [7]; over 43.3 µM in series [8]; over 43.3 µM in [9]; over 21.6 µM in series [10]. Further, the “activity in PI assay” value in series [11] and in [13] was “weakest activity” in each case. In series [12], the “de novo protein synthesis inhibition” value is reported as “no protein synthesis inhibition”.
